Data reported in ChEMBL document CHEMBL4507273 (2021).

Experiments:
[1] = target: Inhibitor of nuclear factor kappa-B kinase subunit epsilon (Homo sapiens) (UniProt Q14164); settings: Compound concentration 1000.0 nM
[2] = target: MAP kinase-interacting serine/threonine-protein kinase 1 (Homo sapiens) (UniProt Q9BUB5); settings: Compound concentration 1000.0 nM
[3] = target: Calcium/calmodulin-dependent protein kinase kinase 2 (Homo sapiens) (UniProt Q96RR4); settings: Compound concentration 1000.0 nM
[4] = target: Serine/threonine-protein kinase 32A (Homo sapiens) (UniProt Q8WU08); settings: Compound concentration 1000.0 nM
Sequence of Serine/threonine-protein kinase 32A (Homo sapiens) (Q8WU08 whole entry): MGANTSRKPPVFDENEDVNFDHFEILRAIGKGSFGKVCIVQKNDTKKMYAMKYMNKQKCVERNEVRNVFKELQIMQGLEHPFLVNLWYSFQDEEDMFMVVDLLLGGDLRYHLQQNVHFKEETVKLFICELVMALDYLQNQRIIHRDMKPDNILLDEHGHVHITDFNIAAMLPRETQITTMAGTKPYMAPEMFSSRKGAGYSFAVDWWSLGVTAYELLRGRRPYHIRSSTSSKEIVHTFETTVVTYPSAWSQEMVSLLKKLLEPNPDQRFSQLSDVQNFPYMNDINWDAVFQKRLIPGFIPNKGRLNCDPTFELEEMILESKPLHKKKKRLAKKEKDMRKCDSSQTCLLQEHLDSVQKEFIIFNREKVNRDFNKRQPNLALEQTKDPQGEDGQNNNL

[5] = target: Tyrosine-protein kinase Fyn (Homo sapiens) (UniProt P06241); settings: Compound concentration 1000.0 nM
[6] = target: Inhibitor of nuclear factor kappa-B kinase subunit beta (Homo sapiens) (UniProt O14920); settings: Compound concentration 1000.0 nM
[7] = tested on: Phosphatidylinositol 4,5-bisphosphate 3-kinase catalytic subunit alpha isoform (Homo sapiens), P42336 [H1047Y]; settings: Compound concentration 1000.0 nM
[8] = target: TGF-beta receptor type-2 (Homo sapiens) (UniProt P37173); settings: Compound concentration 1000.0 nM
Sequence of TGF-beta receptor type-2 (Homo sapiens) (P37173 whole entry): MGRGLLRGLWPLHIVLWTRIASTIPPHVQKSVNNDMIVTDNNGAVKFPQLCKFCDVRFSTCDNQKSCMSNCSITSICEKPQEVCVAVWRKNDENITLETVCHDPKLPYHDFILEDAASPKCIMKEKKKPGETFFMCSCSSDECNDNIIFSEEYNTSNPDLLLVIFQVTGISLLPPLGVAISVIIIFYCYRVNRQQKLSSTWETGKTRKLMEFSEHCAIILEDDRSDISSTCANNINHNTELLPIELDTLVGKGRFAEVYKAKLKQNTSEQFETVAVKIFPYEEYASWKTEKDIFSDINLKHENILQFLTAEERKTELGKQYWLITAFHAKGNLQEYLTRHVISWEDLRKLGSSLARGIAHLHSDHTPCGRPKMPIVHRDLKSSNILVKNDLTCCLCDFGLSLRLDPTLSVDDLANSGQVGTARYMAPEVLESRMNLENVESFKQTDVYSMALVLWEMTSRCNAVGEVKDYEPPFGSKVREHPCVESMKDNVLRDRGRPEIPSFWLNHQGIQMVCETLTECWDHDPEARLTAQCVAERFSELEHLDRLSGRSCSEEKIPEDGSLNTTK

[9] = target: Muscarinic acetylcholine receptor M3 (Homo sapiens, UniProt P20309); settings: Compound concentration 10.0 uM
[10] = tested on: Tyrosine-protein kinase ABL1 (Homo sapiens), P00519 [H396P]; settings: Compound concentration 1000.0 nM
[11] = target: Serine/threonine-protein kinase NIM1 (Homo sapiens) (UniProt Q8IY84); settings: Compound concentration 1000.0 nM
[12] = target: Ribosomal protein S6 kinase alpha-5 (Homo sapiens) (UniProt O75582); settings: Compound concentration 1000.0 nM
Sequence of Ribosomal protein S6 kinase alpha-5 (Homo sapiens) (O75582 whole entry, looked up, the tested form may be a part): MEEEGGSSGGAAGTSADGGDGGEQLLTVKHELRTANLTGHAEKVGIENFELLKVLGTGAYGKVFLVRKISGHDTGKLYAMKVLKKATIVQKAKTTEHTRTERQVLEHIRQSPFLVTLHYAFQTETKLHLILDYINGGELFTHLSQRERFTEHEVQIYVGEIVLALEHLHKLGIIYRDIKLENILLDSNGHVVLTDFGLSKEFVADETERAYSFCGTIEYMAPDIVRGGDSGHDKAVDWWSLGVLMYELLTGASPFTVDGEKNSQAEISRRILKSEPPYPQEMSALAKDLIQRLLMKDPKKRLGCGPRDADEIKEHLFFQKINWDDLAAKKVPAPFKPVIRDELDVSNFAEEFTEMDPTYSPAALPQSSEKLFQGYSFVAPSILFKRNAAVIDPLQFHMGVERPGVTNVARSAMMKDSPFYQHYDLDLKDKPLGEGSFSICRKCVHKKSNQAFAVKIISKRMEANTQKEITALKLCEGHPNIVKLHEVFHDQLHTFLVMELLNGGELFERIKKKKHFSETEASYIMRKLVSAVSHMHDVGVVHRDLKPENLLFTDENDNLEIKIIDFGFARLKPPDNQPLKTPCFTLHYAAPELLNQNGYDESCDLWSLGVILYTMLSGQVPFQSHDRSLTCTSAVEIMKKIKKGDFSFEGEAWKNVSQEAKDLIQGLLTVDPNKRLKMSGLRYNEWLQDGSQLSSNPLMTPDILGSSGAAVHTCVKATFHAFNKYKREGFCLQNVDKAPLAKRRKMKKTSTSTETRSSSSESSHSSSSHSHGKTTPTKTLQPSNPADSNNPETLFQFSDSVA

[13] = tested on: Epidermal growth factor receptor (Homo sapiens), P00533 [UNDEFINED MUTATION]; settings: Compound concentration 1000.0 nM
Sequence of Epidermal growth factor receptor (Homo sapiens), P00533 [UNDEFINED MUTATION] (P00533 whole entry, looked up, change not shown): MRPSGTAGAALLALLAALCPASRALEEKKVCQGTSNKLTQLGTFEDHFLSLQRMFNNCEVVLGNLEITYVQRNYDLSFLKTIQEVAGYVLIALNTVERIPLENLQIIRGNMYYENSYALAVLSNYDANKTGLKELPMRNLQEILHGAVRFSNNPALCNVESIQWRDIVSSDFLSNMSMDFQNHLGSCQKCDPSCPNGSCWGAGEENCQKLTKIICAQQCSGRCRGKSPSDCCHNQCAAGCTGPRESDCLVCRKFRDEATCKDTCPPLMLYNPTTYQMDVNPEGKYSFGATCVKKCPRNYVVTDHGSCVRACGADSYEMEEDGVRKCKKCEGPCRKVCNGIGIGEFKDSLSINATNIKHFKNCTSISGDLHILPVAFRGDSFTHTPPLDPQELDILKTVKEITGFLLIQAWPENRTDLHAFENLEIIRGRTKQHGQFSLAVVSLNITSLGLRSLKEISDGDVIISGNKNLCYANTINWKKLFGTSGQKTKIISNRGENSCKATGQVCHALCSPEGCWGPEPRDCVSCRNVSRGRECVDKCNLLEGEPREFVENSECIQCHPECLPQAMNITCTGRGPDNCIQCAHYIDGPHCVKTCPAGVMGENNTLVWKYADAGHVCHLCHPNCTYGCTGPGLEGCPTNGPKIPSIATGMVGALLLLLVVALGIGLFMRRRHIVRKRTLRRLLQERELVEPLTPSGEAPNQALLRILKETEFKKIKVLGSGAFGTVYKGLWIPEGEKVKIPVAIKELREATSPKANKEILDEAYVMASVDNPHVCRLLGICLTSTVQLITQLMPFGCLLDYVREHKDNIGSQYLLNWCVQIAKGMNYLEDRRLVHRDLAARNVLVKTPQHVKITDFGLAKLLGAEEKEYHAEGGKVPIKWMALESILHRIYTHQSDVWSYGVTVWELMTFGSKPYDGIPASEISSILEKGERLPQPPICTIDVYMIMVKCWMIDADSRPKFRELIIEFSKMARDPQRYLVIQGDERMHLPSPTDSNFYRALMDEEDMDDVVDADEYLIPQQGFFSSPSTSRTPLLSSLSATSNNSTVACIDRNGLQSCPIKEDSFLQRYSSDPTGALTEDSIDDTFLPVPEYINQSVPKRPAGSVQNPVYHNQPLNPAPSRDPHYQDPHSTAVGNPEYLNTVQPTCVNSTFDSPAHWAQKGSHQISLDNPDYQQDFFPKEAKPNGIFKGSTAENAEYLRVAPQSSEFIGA

[14] = target: T1, 5-hydroxytryptamine receptor 1B (Homo sapiens, UniProt P28222); test: GPCRScan assay: inhibition of 5-HT1B; set-up: radioligand conc. used [nm] 0.6 – 1.5, parental cells stable HEK
T1 sequence (P28222 whole entry, canonical isoform): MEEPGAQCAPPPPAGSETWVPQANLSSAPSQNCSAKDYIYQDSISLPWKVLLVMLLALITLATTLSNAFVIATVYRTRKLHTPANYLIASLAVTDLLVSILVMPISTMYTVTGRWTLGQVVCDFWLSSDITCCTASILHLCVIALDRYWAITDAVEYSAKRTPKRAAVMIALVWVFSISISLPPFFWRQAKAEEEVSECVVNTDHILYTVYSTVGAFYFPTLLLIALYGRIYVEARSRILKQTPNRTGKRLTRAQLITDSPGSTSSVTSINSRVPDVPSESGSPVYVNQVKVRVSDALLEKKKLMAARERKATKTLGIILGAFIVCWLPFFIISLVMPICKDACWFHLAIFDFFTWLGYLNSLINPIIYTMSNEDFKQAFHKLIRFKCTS

[15] = target: Phosphorylase b kinase regulatory subunit alpha, liver isoform (Homo sapiens) (UniProt P46019); settings: Compound concentration 1000.0 nM
[16] = target: T1, 5-hydroxytryptamine receptor 1B; settings: Compound concentration 10.0 uM
[17] = target: Serine/threonine-protein kinase tousled-like 1 (Homo sapiens) (UniProt Q9UKI8); settings: Compound concentration 1000.0 nM
Sequence of Serine/threonine-protein kinase tousled-like 1 (Homo sapiens) (Q9UKI8 whole entry): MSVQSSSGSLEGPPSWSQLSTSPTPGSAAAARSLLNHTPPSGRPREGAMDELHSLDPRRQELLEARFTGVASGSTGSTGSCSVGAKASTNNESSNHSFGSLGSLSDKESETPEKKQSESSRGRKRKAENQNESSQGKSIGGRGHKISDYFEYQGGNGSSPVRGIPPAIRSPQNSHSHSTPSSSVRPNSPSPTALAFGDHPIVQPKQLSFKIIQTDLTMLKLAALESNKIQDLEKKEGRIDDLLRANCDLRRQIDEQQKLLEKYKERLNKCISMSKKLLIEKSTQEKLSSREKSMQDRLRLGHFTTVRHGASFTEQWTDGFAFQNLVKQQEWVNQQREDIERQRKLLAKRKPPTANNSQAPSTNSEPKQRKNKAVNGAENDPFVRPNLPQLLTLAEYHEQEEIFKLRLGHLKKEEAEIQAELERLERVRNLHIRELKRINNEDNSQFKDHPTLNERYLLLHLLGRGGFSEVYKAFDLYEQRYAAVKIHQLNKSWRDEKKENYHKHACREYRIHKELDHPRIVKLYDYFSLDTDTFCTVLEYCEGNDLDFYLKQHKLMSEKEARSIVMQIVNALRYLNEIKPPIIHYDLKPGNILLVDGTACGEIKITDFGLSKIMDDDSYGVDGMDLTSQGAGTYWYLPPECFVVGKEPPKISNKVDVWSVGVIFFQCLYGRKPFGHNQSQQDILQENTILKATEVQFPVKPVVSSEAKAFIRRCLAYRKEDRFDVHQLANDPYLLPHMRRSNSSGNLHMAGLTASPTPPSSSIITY

[18] = target: SRSF protein kinase 3 (Homo sapiens) (UniProt Q9UPE1); settings: Compound concentration 1000.0 nM
[19] = target: Mitogen-activated protein kinase kinase kinase kinase 5 (Homo sapiens) (UniProt Q9Y4K4); settings: Compound concentration 1000.0 nM
[20] = target: Ribosomal protein S6 kinase alpha-5 (Homo sapiens) (UniProt O75582); settings: Compound concentration 1000.0 nM; remark: listed apart in the source
[21] = target: LIM domain kinase 2 (Homo sapiens) (UniProt P53671); settings: Compound concentration 1000.0 nM
[22] = target: Calcium/calmodulin-dependent protein kinase type 1B (Homo sapiens) (UniProt Q6P2M8); settings: Compound concentration 1000.0 nM
[23] = target: Mitogen-activated protein kinase kinase kinase kinase 2 (Homo sapiens) (UniProt Q12851); settings: Compound concentration 1000.0 nM
[24] = target: Serine/threonine-protein kinase PLK2 (Homo sapiens) (UniProt Q9NYY3); settings: Compound concentration 1000.0 nM
[25] = target: BMP-2-inducible protein kinase (Homo sapiens) (UniProt Q9NSY1); settings: Compound concentration 1000.0 nM
[26] = target: Serine/threonine-protein kinase 33 (Homo sapiens) (UniProt Q9BYT3); settings: Compound concentration 1000.0 nM
[27] = target: Cyclin-dependent kinase 18 (Homo sapiens) (UniProt Q07002); settings: Compound concentration 1000.0 nM
[28] = target: Serine/threonine-protein kinase MRCK gamma (Homo sapiens) (UniProt Q6DT37); settings: Compound concentration 1000.0 nM
[29] = tested on: ALK tyrosine kinase receptor (Homo sapiens), Q9UM73 [L1196M]; settings: Compound concentration 1000.0 nM
[30] = target: Mitogen-activated protein kinase 15 (Homo sapiens) (UniProt Q8TD08); settings: Compound concentration 1000.0 nM
[31] = target: Mitogen-activated protein kinase 11 (Homo sapiens) (UniProt Q15759); settings: Compound concentration 1000.0 nM
[32] = target: Dual specificity protein kinase CLK1 (Homo sapiens) (UniProt P49759); settings: Compound concentration 1000.0 nM
[33] = tested on: Tyrosine-protein kinase ABL1 (Homo sapiens), P00519 [F317L]; settings: Compound concentration 1000.0 nM
[34] = target: Serine/threonine-protein kinase Chk1 (Homo sapiens) (UniProt O14757); settings: Compound concentration 1000.0 nM
[35] = target: Serine/threonine-protein kinase Nek5 (Homo sapiens) (UniProt Q6P3R8); settings: Compound concentration 1000.0 nM
[36] = target: 5-hydroxytryptamine receptor 5A (Homo sapiens, UniProt P47898); settings: Compound concentration 10.0 uM
[37] = tested on: Epidermal growth factor receptor (Homo sapiens), P00533 [UNDEFINED MUTATION]; settings: Compound concentration 1000.0 nM; remark: listed apart in the source
D(1A) dopamine receptor = D(1A) dopamine receptor (Homo sapiens, UniProt P21728); test: GPCRScan assay: inhibition of D1; set-up: radioligand conc. used [nm] 0.6 – 1.3, parental cells HEKT
Sequence of D(1A) dopamine receptor (P21728 whole entry): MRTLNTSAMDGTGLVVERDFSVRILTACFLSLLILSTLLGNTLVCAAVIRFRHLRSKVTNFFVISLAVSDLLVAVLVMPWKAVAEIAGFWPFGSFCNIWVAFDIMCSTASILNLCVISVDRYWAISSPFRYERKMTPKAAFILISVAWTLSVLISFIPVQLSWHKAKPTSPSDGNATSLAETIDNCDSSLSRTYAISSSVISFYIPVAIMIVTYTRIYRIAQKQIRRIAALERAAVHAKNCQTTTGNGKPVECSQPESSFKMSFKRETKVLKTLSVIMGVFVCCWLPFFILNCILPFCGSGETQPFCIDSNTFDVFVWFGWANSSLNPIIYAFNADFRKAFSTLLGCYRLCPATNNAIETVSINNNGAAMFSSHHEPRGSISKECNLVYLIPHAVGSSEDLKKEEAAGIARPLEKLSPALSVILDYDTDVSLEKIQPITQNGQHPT

[38] = target: Serine/threonine-protein kinase Sgk3 (Homo sapiens) (UniProt Q96BR1); settings: Compound concentration 1000.0 nM
[39] = target: Epidermal growth factor receptor (Homo sapiens, UniProt P00533); test: EGFR kinase inhibition assay
[40] = target: Mitogen-activated protein kinase kinase kinase 6 (Homo sapiens) (UniProt O95382); settings: Compound concentration 1000.0 nM
Histamine H1 receptor = Histamine H1 receptor (Homo sapiens, UniProt P35367); settings: Compound concentration 10.0 uM
[41] = target: 5-hydroxytryptamine receptor 1D (Homo sapiens, UniProt P28221); settings: Compound concentration 10.0 uM
[42] = tested on: Fibroblast growth factor receptor 3 (Homo sapiens), P22607 [G697C]; settings: Compound concentration 1000.0 nM
[43] = target: Dual specificity protein kinase TTK (Homo sapiens) (UniProt P33981); settings: Compound concentration 1000.0 nM

Sequence of MAP kinase-interacting serine/threonine-protein kinase 1 (Homo sapiens) (Q9BUB5 whole entry, looked up): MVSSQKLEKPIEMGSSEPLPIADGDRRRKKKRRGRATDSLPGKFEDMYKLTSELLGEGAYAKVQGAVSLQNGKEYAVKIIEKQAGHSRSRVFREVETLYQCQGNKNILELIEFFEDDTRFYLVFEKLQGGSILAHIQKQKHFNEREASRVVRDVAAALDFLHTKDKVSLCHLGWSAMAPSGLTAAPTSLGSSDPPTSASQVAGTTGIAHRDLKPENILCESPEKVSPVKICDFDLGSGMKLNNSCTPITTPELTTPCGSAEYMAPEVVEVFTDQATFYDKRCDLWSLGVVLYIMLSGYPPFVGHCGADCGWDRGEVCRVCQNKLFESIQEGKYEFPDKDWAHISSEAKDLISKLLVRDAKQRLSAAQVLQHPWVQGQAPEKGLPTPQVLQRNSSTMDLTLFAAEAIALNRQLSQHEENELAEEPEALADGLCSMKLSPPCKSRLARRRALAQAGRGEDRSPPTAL

`CNCc1ccccc1-c1csc([C@H](C)Nc2nc(C)nc3cc(OC)c(OC)cc23)c1` [BAY-294] was tested, and the residual activity [1] was 85%, the residual activity [2] was 91% and the residual activity [3] was 82%. The residual activity [4] was 91%, the residual activity [5] was 100% and the residual activity [6] was 83%. It also gave a residual activity [7] of 100%, a residual activity [8] of 97% and an inhibition [9] of 48%. The residual activity [10] was 89%, the residual activity [11] was 90% and the residual activity [12] was 82%. It also gave a residual activity [13] of 89%, a Ki ([14]; read-out: Ki) of 1.76 µM and a residual activity [15] of 100%. The inhibition [16] was 75%, the residual activity [17] was 100% and the residual activity [18] was 89%. For the same compound, the residual activity [19] was 100%, the residual activity [20] was 100% and the residual activity [21] was 100%. The residual activity [22] was 100%, the residual activity [23] was 97% and the residual activity [24] was 83%. For the same compound, the residual activity [25] was 79%, the residual activity [26] was 73% and the residual activity [27] was 100%. It also gave a residual activity [28] of 100%, a residual activity [29] of 93% and a residual activity [30] of 100%. For the same compound, the residual activity [31] was 100%, the residual activity [32] was 95% and the residual activity [33] was 97%. The residual activity [34] was 100%, the residual activity [35] was 100% and the inhibition [36] was 78.1%. It also gave a residual activity [37] of 100%, a Ki (D(1A) dopamine receptor; read-out: Ki) of 0.718 µM and a Ki (D(1A) dopamine receptor; read-out: pKi (converted)) of 0.562 µM. For the same compound, the residual activity [38] was 93%, the IC50 [39] was > 20 µM (not active) and the residual activity [40] was 100%. For the same compound, the inhibition (Histamine H1 receptor) was 56.7%, the inhibition [41] was 98.9% and the residual activity [42] was 100%. For the same compound, the residual activity [43] was 100%.

For `CNCc1ccccc1-c1csc([C@@H](C)Nc2nc(C)nc3cc(OC)c(OC)cc23)c1` [BAY-293], the residual activity [1] was 71%, the residual activity [2] was 83% and the residual activity [3] was 100%. It also gave a residual activity [4] of 76%, a residual activity [5] of 100% and a residual activity [6] of 94%. It also gave a residual activity [7] of 100%, a residual activity [8] of 91% and an inhibition [9] of 56.5%. It also gave a residual activity [10] of 78%, a residual activity [11] of 93% and a residual activity [12] of 89%. For the same compound, the residual activity [13] was 100%, the Ki ([14]; read-out: Ki) was 1.41 µM and the Ki ([14]; read-out: pKi (converted)) was 1.35 µM. It also gave a residual activity [15] of 100%, an inhibition [16] of 66.1% and a residual activity [17] of 100%. For the same compound, the residual activity [18] was 84%, the residual activity [19] was 100% and the residual activity [20] was 100%. The residual activity [21] was 96%, the residual activity [22] was 95% and the residual activity [23] was 91%. For the same compound, the residual activity [24] was 82%, the residual activity [25] was 87% and the residual activity [26] was 45%. The residual activity [27] was 100%, the residual activity [28] was 98% and the residual activity [29] was 100%. The residual activity [30] was 100%, the residual activity [31] was 86% and the residual activity [32] was 98%. It also gave a residual activity [33] of 86%, a residual activity [34] of 92% and a residual activity [35] of 99%. The inhibition [36] was 68.5%, the residual activity [37] was 61% and the Ki (D(1A) dopamine receptor; read-out: Ki) was 1.27 µM. For the same compound, the residual activity [38] was 78%, the IC50 [39] was > 20 µM (not active) and the residual activity [40] was 99%. It also gave an inhibition (Histamine H1 receptor) of 49.4%, an inhibition [41] of 98.1% and a residual activity [42] of 85%. For the same compound, the residual activity [43] was 97%.
